Reference: BigSolDB 2.1

C[C@@H]1CC[C@@]2(OC1)O[C@H]1C[C@H]3[C@@H]4CC=C5C[C@@H](O)CC[C@]5(C)[C@H]4CC[C@]3(C)[C@H]1[C@@H]2C
Conditions	solubility (mole fraction)
in acetone, 295.15 K	0.000904
in acetone, 302.15 K	0.00115
in acetone, 304.65 K	0.00127
in acetone, 308.15 K	0.0014
in acetone, 310.15 K	0.00149
in acetone, 312.15 K	0.00159
in acetone, 313.65 K	0.0017
in acetone, 315.65 K	0.00184
in acetone, 317.15 K	0.00194
in acetone, 319.15 K	0.00204
in acetone, 321.15 K	0.00217
in acetone, 322.65 K	0.0023
in acetone, 324.65 K	0.00243
in acetone, 326.65 K	0.00256
in acetone, 327.65 K	0.00267
in acetone, 329.15 K	0.00279
in acetone, 330.15 K	0.00292
in acetone, 332.15 K	0.00303
in ethanol, 299.15 K	0.00133
in ethanol, 303.15 K	0.00144
in ethanol, 306.15 K	0.00153
in ethanol, 308.65 K	0.00161
in ethanol, 311.65 K	0.00169
in ethanol, 313.65 K	0.00175
in ethanol, 315.65 K	0.00184
in ethanol, 317.15 K	0.00193
in ethanol, 319.15 K	0.002
in ethanol, 320.65 K	0.00208
in ethanol, 322.65 K	0.00215
in ethanol, 324.15 K	0.00224
in ethanol, 326.15 K	0.00233
in ethanol, 327.65 K	0.00241
in ethanol, 328.65 K	0.00249
in ethanol, 329.65 K	0.00258
in ethanol, 330.65 K	0.00268
in ethanol, 331.65 K	0.00276
in ethanol, 332.65 K	0.00284
in ethyl acetate, 300.65 K	0.0024
in ethyl acetate, 302.15 K	0.00258
in ethyl acetate, 303.15 K	0.00276
in ethyl acetate, 303.65 K	0.00294
in ethyl acetate, 305.15 K	0.00317
in ethyl acetate, 307.15 K	0.00338
in ethyl acetate, 308.65 K	0.0036
in ethyl acetate, 310.65 K	0.00383
in ethyl acetate, 311.65 K	0.00402
in ethyl acetate, 313.65 K	0.00423
in ethyl acetate, 315.65 K	0.00447
in ethyl acetate, 316.65 K	0.00466
in ethyl acetate, 318.15 K	0.00492
in ethyl acetate, 320.15 K	0.00523
in ethyl acetate, 321.65 K	0.00545
in ethyl acetate, 323.15 K	0.00577
in ethyl acetate, 324.65 K	0.00602
in ethyl acetate, 326.65 K	0.00628
in ethyl acetate, 327.65 K	0.0065
in ethyl acetate, 328.95 K	0.00673
in isopropanol, 293.15 K	0.000835
in isopropanol, 296.65 K	0.000975
in isopropanol, 300.65 K	0.00111
in isopropanol, 303.15 K	0.00123
in isopropanol, 304.65 K	0.00134
in isopropanol, 306.65 K	0.00145
in isopropanol, 308.65 K	0.00157
in isopropanol, 311.15 K	0.00167
in isopropanol, 314.65 K	0.00178
in isopropanol, 317.15 K	0.00192
in isopropanol, 319.15 K	0.00203
in isopropanol, 321.15 K	0.00216
in isopropanol, 324.65 K	0.0023
in isopropanol, 326.15 K	0.00241
in isopropanol, 328.15 K	0.00253
in isopropanol, 330.15 K	0.00267
in isopropanol, 332.15 K	0.00282
in methanol, 291.15 K	0.000187
in methanol, 298.15 K	0.000257
in methanol, 300.15 K	0.000325
in methanol, 308.15 K	0.000401
in methanol, 312.65 K	0.000469
in methanol, 315.15 K	0.00051
in methanol, 317.65 K	0.000556
in methanol, 319.65 K	0.0006
in methanol, 322.15 K	0.000643
in methanol, 323.65 K	0.000694
in methanol, 325.65 K	0.000743
in methanol, 327.15 K	0.000795
in methanol, 328.15 K	0.000847
in methanol, 329.15 K	0.00091
in methanol, 331.65 K	0.000994
in n-propyl acetate, 296.15 K	0.0021
in n-propyl acetate, 300.15 K	0.00263
in n-propyl acetate, 306.65 K	0.00313
in n-propyl acetate, 307.15 K	0.00321
in n-propyl acetate, 310.15 K	0.00356
in n-propyl acetate, 314.65 K	0.00402
in n-propyl acetate, 317.65 K	0.00442
in n-propyl acetate, 319.65 K	0.0047
in n-propyl acetate, 322.15 K	0.00495
in n-propyl acetate, 323.65 K	0.0053
in n-propyl acetate, 325.15 K	0.00543
in n-propyl acetate, 327.15 K	0.00575
in n-propyl acetate, 328.65 K	0.00616
in n-propyl acetate, 329.15 K	0.00612
